Source: ChEMBL document CHEMBL5370643, “Discovery of MK-1468: A Potent, Kinome-Selective, Brain-Penetrant Amidoisoquinoline LRRK2 Inhibitor for the Potential Treatment of Parkinson's Disease” (J Med Chem, 2023)
≈ marks a conversion by molar mass, not a printed value.

Key:
[1] = Total clearance in Beagle dog at 0.5 mg/kg, iv measured after 24 hrs by LC-MS/MS analysis; assay type: ADME, organism-based, Canis lupus familiaris; details: in vivo
[2] = Oral bioavailability in Wistar-Han rat at 5 mg/kg measured after 24 hrs by LC-MS/MS analysis; assay type: ADME, organism-based; details: in vivo
[3] = MRT in rhesus monkey at 3 mg/kg, iv measured after 24 hrs by LC-MS/MS analysis; assay type: ADME, organism-based, Macaca mulatta; details: in vivo
[4] = Unbound brain-to-plasma concentration ratio in iv dosed Wistar-Han rat administered as cassette dose by LC-MS/MS analysis; assay type: ADME, organism-based; details: read-out: K(p,uu,brain)
Nav1.5 = Nav1.5 (Homo sapiens, UniProt Q14524); assay: Inhibition of human Nav1.5 expressed in HEK293 cells at 30 uM by QPatch voltage clamp assay relative to control; assay type: cell-based; details: HEK293 cells expressing human Nav1.5
rat Mdr1a P-gp = assay: Apparent permeability across apical to basolateral side in LLC-PK1 cells transfected with rat Mdr1a P-gp incubated for 3 hrs by LC-MS/MS analysis; details: pig
[5] = Intrinsic clearance in Wistar-Han rat at 3 mg/kg, iv measured after 24 hrs by LC-MS/MS analysis; assay type: ADME, organism-based; details: in vivo
mouse BCRP = assay: Efflux ratio of apparent permeability across basolateral to apical over apical to basolateral side in MDCK-II cells transfected with mouse BCRP incubated for 3 hrs by LC-MS/MS analysis; details: dog
[6] = Intrinsic clearance in Beagle dog at 0.5 mg/kg, iv measured after 24 hrs by LC-MS/MS analysis; assay type: ADME, organism-based, Canis lupus familiaris; details: in vivo
[7] = Mutagenicity in Salmonella typhimurium TA1535 at 30 to 5000 ug/plate incubated for 48 hrs in presence of Wistar-Han rat S9 fraction by Ames test; assay type: toxicity, subcellular; details: salmonella enterica subsp. enterica serovar typhimurium, s9, 48 h
[8] = AUC in Wistar-Han rat at 225 mg/kg, po administered once daily for 7 days; assay type: ADME, organism-based; set-up: time 7 day, dose 225 mg/kg, route po; details: in vivo
[9] = Toxicity in Wistar-Han rat assessed as effect on systolic blood pressure at 60 mg/kg, po administered as single dose and measured upto 24 hrs by telemetric analysis; assay type: organism-based; details: in vivo
[10] = Toxicity in Wistar-Han rat assessed as effect on spontaneous locomotor activity at 225 mg/kg, po administered as single dose and measured upto 24 hrs by telemetric analysis; assay type: organism-based; details: in vivo
[11] = molecular target: Leucine-rich repeat serine/threonine-protein kinase 2 (Homo sapiens) (UniProt Q5S007); assay: Inhibition of LRRK2 in human PBMC using LRRKtide peptide as substrate assessed as Ser935 dephosphorylation preincubated with compound for 15 mins followed by substrate addition and measured after 90 mins in presence of ATP by TR-FRET assay; assay type: cell-based; details: time 105.0 min
[12] = Total clearance in Wistar-Han rat at 3 mg/kg, iv measured after 24 hrs by LC-MS/MS analysis; assay type: ADME, organism-based; details: in vivo
Brain = assay: In vivo inhibition of LRRK2 in Wistar-Han rat assessed as reduction in Ser935 phosphorylation in brain at 1 to 100 mg/kg, po measured after 2 hrs; assay type: functional; details: dose 1-100 mg/kg
Nav1.5 (SCN5A) = Nav1.5 (SCN5A) (Homo sapiens, UniProt Q14524); assay: Inhibition of human Nav1.5 expressed in HEK293 cells at 10 uM by QPatch voltage clamp assay relative to control; assay type: cell-based; details: HEK293 cells expressing human Nav1.5
[13] = Protein binding in rat plasma incubated for 4 hrs by equilibrium dialysis method; assay type: ADME, cell-free; details: read-out: PPB (converted)
[14] = AUC in rhesus monkey at 100 mg/kg, po administered once daily for 7 days; assay type: ADME, organism-based, Macaca mulatta; set-up: dose 100 mg/kg, time 7 day, route po; details: in vivo
[15] = Toxicity in Wistar-Han rat assessed as effect on heart rate at 225 mg/kg, po administered as single dose and measured after 5 to 8 hrs by telemetric analysis; assay type: organism-based; details: in vivo, time 5-8 hrs
[16] = Kinetic solubility of compound in FaSSIF at pH 6.5 measured after 24 hrs by UPLC/DAD analysis; assay type: physicochemical; details: read-out: Kinetic_solubility
[17] = Protein binding in rhesus monkey plasma incubated for 4 hrs by equilibrium dialysis method; assay type: ADME, cell-free, Macaca mulatta; details: read-out: PPB (converted)
Rattus norvegicus = assay: In vivo inhibition of LRRK2 in po dosed Wistar-Han rat assessed as reduction in Ser935 phosphorylation in stratium measured after 2 hrs; assay type: functional, organism-based; details: dose 1-100 mg/kg
[18] = Protein binding in human plasma incubated for 4 hrs by equilibrium dialysis method; assay type: ADME, cell-free; details: read-out: PPB (converted)
[19] = Mutagenicity in Salmonella typhimurium TA100 at 30 to 5000 ug/plate incubated for 48 hrs in presence of Wistar-Han rat S9 fraction by Ames test; assay type: toxicity, subcellular; details: salmonella enterica subsp. enterica serovar typhimurium, s9, 48 h
[20] = Mutagenicity in Salmonella typhimurium TA98 at 30 to 5000 ug/plate incubated for 48 hrs in presence of Wistar-Han rat S9 fraction by Ames test; assay type: toxicity, subcellular; details: salmonella enterica subsp. enterica serovar typhimurium, s9, 48 h
[21] = molecular target: Voltage-gated inwardly rectifying potassium channel KCNH2 (Homo sapiens, UniProt Q12809); assay: Inhibition of hERG expressed in CHO cells by QPatch voltage clamp assay
Sequence of Voltage-gated inwardly rectifying potassium channel KCNH2 (Q12809 whole entry): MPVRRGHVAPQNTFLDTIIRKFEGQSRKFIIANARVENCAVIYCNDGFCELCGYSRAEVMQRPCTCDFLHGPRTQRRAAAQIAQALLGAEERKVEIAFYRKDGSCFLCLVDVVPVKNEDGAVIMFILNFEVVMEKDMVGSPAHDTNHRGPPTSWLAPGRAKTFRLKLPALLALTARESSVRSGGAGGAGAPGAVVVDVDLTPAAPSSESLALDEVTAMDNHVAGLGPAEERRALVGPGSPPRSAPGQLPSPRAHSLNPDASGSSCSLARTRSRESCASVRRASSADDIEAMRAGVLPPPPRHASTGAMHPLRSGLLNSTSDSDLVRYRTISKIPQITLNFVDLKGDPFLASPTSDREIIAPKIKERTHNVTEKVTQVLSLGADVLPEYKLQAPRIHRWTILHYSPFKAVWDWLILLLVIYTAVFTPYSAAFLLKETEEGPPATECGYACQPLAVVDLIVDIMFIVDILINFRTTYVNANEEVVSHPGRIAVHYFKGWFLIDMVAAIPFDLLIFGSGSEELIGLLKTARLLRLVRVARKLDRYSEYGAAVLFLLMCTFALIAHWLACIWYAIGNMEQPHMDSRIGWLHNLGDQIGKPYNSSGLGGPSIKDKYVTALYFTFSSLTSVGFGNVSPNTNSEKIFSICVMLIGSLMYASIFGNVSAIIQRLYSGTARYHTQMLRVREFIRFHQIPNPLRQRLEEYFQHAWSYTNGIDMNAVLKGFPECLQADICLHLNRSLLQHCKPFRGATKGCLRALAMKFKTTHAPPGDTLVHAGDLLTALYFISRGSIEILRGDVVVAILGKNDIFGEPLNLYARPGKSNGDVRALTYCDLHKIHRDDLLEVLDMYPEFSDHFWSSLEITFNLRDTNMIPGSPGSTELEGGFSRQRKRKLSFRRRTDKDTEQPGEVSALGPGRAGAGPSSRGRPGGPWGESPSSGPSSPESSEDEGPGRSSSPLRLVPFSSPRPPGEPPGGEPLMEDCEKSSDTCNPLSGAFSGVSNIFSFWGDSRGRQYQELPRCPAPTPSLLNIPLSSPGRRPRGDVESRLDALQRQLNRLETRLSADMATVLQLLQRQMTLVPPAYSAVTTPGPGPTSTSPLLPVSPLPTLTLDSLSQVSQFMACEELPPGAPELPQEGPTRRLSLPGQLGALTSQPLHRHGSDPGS

PBMC = assay: Inhibition of LRRK2 in rat PBMC assessed as Ser935 dephosphorylation; assay type: cell-based
[22] = Toxicity in rhesus monkey assessed as clinical observation at 100 to 800 mg/kg, po administered once daily for 7 days; assay type: organism-based, Macaca mulatta; details: in vivo, 168 h, dose 100-800 mg/kg, time 7 day
[23] = Kinetic solubility of compound in PBS at pH 7 measured after 24 hrs by UPLC/DAD analysis; assay type: physicochemical; details: read-out: Kinetic_solubility
[24] = AUC in rhesus monkey at 200 mg/kg, po administered once daily for 7 days; assay type: ADME, organism-based, Macaca mulatta; set-up: dose 200 mg/kg, time 7 day, route po; details: in vivo
rat Mdrl1 P-gp = assay: Efflux ratio of apparent permeability across basolateral to apical over apical to basolateral side in MDCK cells transfected with rat Mdrl1 P-gp incubated for 3 hrs by LC-MS/MS analysis; details: dog, MDCK-MDR1
hERG = hERG (Homo sapiens, UniProt Q12809); assay: Inhibition of hERG expressed in CHO cells at 10 uM by QPatch voltage clamp assay relative to control; assay type: toxicity, cell-based; details: CHO cells expressing hERG
Sequence of hERG (Q12809 whole entry): as above

[25] = Unbound drug concentration in guinea pig plasma at 15 mg/kg, iv administered continuously for 20 mins; assay type: ADME, organism-based, Cavia porcellus; details: in vivo
[26] = Genotoxicity in human TK6 cells assessed as induction of DNA damage upto 31.9 uM; assay type: toxicity, cell-based; details: tk6, 31.9 µM
[27] = Oral bioavailability in Beagle dog at 5 mg/kg measured after 24 hrs by LC-MS/MS analysis; assay type: ADME, organism-based, Canis lupus familiaris; details: in vivo
[28] = Cardiotoxicity in iv dose guinea pig assessed as increase in QTc interval at high dose administered continuously for 20 min by ECG analysis; assay type: toxicity, organism-based, Cavia porcellus; details: in vivo
[29] = Toxicity in Wistar-Han rat assessed as effect on arterial pulse pressure at 60 mg/kg, po administered as single dose and measured upto 24 hrs by telemetric analysis; assay type: organism-based; details: in vivo
[30] = molecular target: KCNQ1/KCNE1 (IKs, Kv7.1/MinK) (Homo sapiens, UniProt P15382+P51787); assay: Inhibition of human KCNQ1/KCNE1 expressed in HEK293 cells at 30 uM by QPatch voltage clamp assay relative to control; assay type: cell-based; details: HEK293 cells expressing human KCNQ1/KCNE1
Sequence of KCNQ1/KCNE1 (IKs, Kv7.1/MinK) (P51787 whole entry): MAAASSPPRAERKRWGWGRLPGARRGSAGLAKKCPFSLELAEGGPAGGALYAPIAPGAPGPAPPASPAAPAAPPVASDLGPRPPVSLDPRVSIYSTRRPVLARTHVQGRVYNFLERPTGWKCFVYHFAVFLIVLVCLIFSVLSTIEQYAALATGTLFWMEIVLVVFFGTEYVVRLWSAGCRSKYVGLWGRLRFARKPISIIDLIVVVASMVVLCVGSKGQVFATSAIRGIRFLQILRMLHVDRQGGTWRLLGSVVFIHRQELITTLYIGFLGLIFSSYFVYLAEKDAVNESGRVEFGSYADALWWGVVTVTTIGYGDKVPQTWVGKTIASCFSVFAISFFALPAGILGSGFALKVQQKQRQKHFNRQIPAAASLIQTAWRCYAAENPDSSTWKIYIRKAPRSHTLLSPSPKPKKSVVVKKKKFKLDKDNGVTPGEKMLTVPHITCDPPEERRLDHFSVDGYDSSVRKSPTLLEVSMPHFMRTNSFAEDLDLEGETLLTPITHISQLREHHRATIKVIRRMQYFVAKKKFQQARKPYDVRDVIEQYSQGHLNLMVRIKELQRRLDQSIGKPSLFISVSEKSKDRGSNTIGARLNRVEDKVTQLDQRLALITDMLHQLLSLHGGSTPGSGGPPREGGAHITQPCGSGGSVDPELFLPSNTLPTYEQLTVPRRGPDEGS

With `C[C@@]1(N2CCN(c3cc4cc(NC(=O)[C@H]5CC56CCOCC6)ncc4cc3Cl)CC2)COC[C@@H]1O` the clearance [1] was 11 mL/min/kg, the bioavailability [2] was 56% and the MRT [3] was 3.6 h. The Kp uu [4] was 0.3, the inhibition at 30 µM (Nav1.5) was 34% and the Papp A→B at 3 h (rat Mdr1a P-gp) was 30 ×10⁻⁶ cm/s. For the same compound, the CL [5] was 1435 mL/min/kg, the efflux ratio at 3 h (mouse BCRP) was 2.6 and the CL [6] was 149 mL/min/kg. For the same compound, the Activity [7] was “Non-Toxic”, the AUC at 168 h [8] was 88 µM·h and the Activity [9] was “Non-Toxic”. For the same compound, the Activity [10] was “Non-Toxic”, the fIC50 [11] was 2.8 nM and the clearance [12] was 56 mL/min/kg. It also gave a fIC50 (Brain) of 33 nM, an inhibition at 10 µM (Nav1.5 (SCN5A)) of 23% and a fraction unbound at 4 h [13] of 0.115. For the same compound, the AUC at 168 h [14] was 14 µM·h, the Activity [15] was “Toxic” and the solubility kinetic at 24 h [16] was 6 µM (≈ 3.01 µg/mL). For the same compound, the fraction unbound at 4 h [17] was 0.12, the inhibition (Rattus norvegicus) was “Dose-Dependent Effect” and the fraction unbound at 4 h [18] was 0.131. For the same compound, the Activity [19] was “Non-Toxic”, the Activity [20] was “Non-Toxic” and the IC50 [21] was greater than 60 µM. The fIC50 (PBMC) was 25 nM, the Activity [22] was “Non-Toxic” and the solubility kinetic at 24 h [23] was less than 3 µM. It also gave an AUC at 168 h [24] of 25 µM·h, an efflux ratio at 3 h (rat Mdrl1 P-gp) of 2.1 and an inhibition at 10 µM (hERG) of 15%. For the same compound, the “Cp(f)” value [25] was 5.69 µM, the Activity [26] was “Non-Toxic” and the bioavailability [27] was 100%. The Activity [28] was “Toxic”, the Activity [29] was “Non-Toxic” and the inhibition at 30 µM [30] was 18%.
